The subject of one test is Nippostrongylus. As to the kind of experiment: Nippostrongylus in vitro (acetylcholine esterase determination). On the set-up: species or system Nippostrongylus brasiliensis. As to conditions: read-out: inhibition of the enzyme (full activity). The method, then: Nippostrongylus are isolated from the small intestine of rats and washed with 0.9% of NaCl supplemented with 29 μg/ml sisomycin and 2 μg/ml of clotrimazole. The actual incubation of in each case 5 male and female Nippostrongylus is carried out in 1.0 ml of medium used for determining the activity of acetylcholine esterase. Enzyme determination is by the method of Rapson et al., 1987 (E. B. Rapson, D. C. Jenkins, A. S. Chilwan), Improved detection of anthelmintic activity in vitro screen utilizing adult Nippostrongylus brasiliensis. Parasitol. Res. 1987 73, 190 to 191.
The following key is used for the assessment: 3=full activity, 100% inhibition of the enzyme; 2=good activity, more than 75% inhibition; 1=poor activity, less than 50% inhibition.

The subject of a further test is Setaria. As to the kind of experiment: Pre-emergence test, Setaria. The test is classed as in vivo. As to conditions: 504 h, after three weeks, 0%=no action, 100%=total destruction, read-out: % Activity (damage to the plants). The method, then:
(§1) Solvent: 5 parts by weight of acetone
(§2) Emulsifier: 1 part by weight of alkylaryl polyglycol ether
(§3) To produce a suitable preparation of active compound, 1 part by weight of active compound is mixed with the stated amount of solvent, the stated amount of emulsifier is added and the concentrate is diluted with water to the desired concentration.
(§4) Seeds of the test plants are sown in normal soil and, after 24 hours, watered with the preparation of the active compound. It is expedient to keep constant the amount of water per unit area. The concentration of the active compound in the preparation is of no importance, only the amount of active compound applied per unit area being decisive. After three weeks, the degree of damage to the plants is rated in % damage in comparison to the development of the untreated control. The figures denote:
(§5) 0%=no action (like untreated control)
(§6) In this test, the following results were obtained at an exemplary application rate of 500 g/ha, the active compounds being tolerated well to very well by soya beans: […]

Another test concerns Echinochloa. Description: Pre-emergence test, Echinochloa. The test is classed as in vivo. To be noted: 504 h, after three weeks, 0%=no action, 100%=total destruction, read-out: % Activity (damage to the plants). The method, then:
as §1, §2, §3, §4, §5, §6

The subject of another test is Digitaria. As to the kind of experiment: Pre-emergence test, Digitaria. The test is classed as in vivo. To be noted: 504 h, after three weeks, 0%=no action, 100%=total destruction, read-out: % Activity (damage to the plants). How it is done:
as §1, §2, §3, §4, §5, §6

Test [1] concerns larvae of the green rice cicada (Nephotettix cincticeps). As to the kind of experiment: whole plant or invertebrate. The test is classed as in vivo. To be noted: 144 h, read-out: destruction of cicadas. The method, then:
(§7) Solvent: 7 parts by weight of dimethylformamide
as §2
(§8) To produce a suitable preparation of active compound, 1 part by weight of active compound is mixed with the stated amount of solvent and the stated amount of emulsifier, and the concentrate is diluted with water to the desired concentration.
Rice seedlings (Oryza satira) are treated by being dipped into the preparation of active compound of the desired concentration and are infested with larvae of the green rice cicada (Nephotettix cincticeps) while the seedlings are still moist.
After the specified period of time, the destruction in % is determined. 100% means that all the cicadas have been killed; 0% means that none of the cicadas have been killed.

The test system of test [2] is Lucilia cuprina resistant larvae. As to the kind of experiment: Test with Lucilia cuprina resistant larvae. As to conditions: after 24 hours, read-out: degree of destruction. The format is in vivo. The method, then:
Test with Lucilia cuprina resistant larvae
Emulsifier: 35 parts by weight of ethylene glycolmonomethyl ether 35 parts by weight of nonylphenol polyglycol ether
To produce a suitable preparation of active compound, three parts by weight of active compound are mixed with seven parts by weight of the abovementioned mixture and the concentrate thus obtained is diluted with water to the particular desired concentration.
About 20 Lucilia cuprina res. larvae are introduced into a test tube which contains approx. 1 cm^3 of horse meat and 0.5 ml of the preparation of active compound. After 24 hours, the degree of destruction is determined.

Test [3] concerns black bean aphid (Aphis fabae). Description: whole plant or invertebrate. The format is in vivo. To be noted: active compound concentration 0.1%, bean plants watered, systemic action, read-out: destruction of aphids. How it is done: Aphis test (systemic action)
as §7, §2, §8
Bean plants (Vicia faba) which are heavily infested with the black bean aphid (Aphis fabae) are each watered with 20 ml of the preparation of the active compound of the desired concentration in such a way that the preparation of active compound penetrates the soil without wetting the shoot. The active compound is taken up by the roots and translocated to the shoot.
After the specified period of time, the destruction in % is determined. 100% means that all the aphids have been killed; 0% means that none of the aphids have been killed.

Another test deals with Panicum. As to the kind of experiment: Pre-emergence test, Panicum. As to conditions: 504 h, after three weeks, 0%=no action, 100%=total destruction, read-out: % Activity (damage to the plants). The format is in vivo. The method, then:
as §1, §2, §3, §4, §5, §6

Test [4] relates to mustard beetle larvae (Phaedon cochleariae). Description: Phaedon larvae test. The test is classed as in vivo. As to conditions: 168 h, after 7 days, active compound concentration 0.1%, cabbage leaves dipped, read-out: destruction of beetle larvae. How it is done: as §7, §2, §8
After the specified periods of time, the destruction in % is determined. 100% means that all the beetle larvae have been killed; 0% means that none of the beetle larvae have been killed.

The subject of test [5] is caterpillars of the diamond-back moth (Plutella maculipennis). As to the kind of experiment: whole plant or invertebrate. The test is classed as in vivo. As to conditions: in Brassica oleracea, 168 h, read-out: destruction of caterpillars. The method, then: as §7, §2, §8
Cabbage leaves (Brassica oleracea) are treated by being dipped into the preparation of active compound of the desired concentration and are infested with caterpillars of the diamond-back moth (Plutella maculipennis) while the leaves are still moist.
After the specified periods of time, the destruction in % is determined. 100% means that all the caterpillars have been killed; 0% means that none of the caterpillars have been killed.

As usually defined, the inhibition is the share of the control response that was lost under treatment. For the compound `CCOC(=O)c1c(C)oc(=O)c(-c2c(C)cc(C)cc2C)c1O` [Example 1], the inhibition at 100 ppm in the test with Nippostrongylus came to 100%.

Regarding `Cc1cc(C)c(-c2c(O)c(C)c(C)oc2=O)c(C)c1` [Example 32], the activity at 500 g/ha lay within 70 to 100% with Setaria, 70 to 100% in the test on Echinochloa, 90 to 100% with Digitaria and 95 to 100% in the test with Panicum. For the same compound, the mortality at 0.1 % in [1] and in test [3] was 100% each time. In test [2], the mortality at 1000 ppm amounted to 100%.

`Cc1cc(C)c(-c2c(O)cc(-c3ccccc3)oc2=O)c(C)c1` [Example 46]: the activity at 500 g/ha in the test on Echinochloa lay in the range of 70 to 100%; in the test with Digitaria it was 90 to 100%; with Panicum, 95 to 100%. Moreover, the mortality at 0.1 % in test [4] and in [5] was 100% in each case. The mortality at 1000 ppm in test [2] was 100%.

The values are drawn from patent publication US5393729A, “3-aryl-pyrone derivatives” (Bayer Aktiengesellschaft, priority 1992, dated 1995).
